The text below walks through data of ChEMBL document CHEMBL5380843 (J Med Chem, 2023).

SMILES strings stand for the structures.

Data set [1] in a line: Resistant factor, ratio of EC50 for antiviral activity against HIV-1 IIIB harboring reverse transcriptase Y188L mutant to EC50 for antiviral activity against wild type HIV-1 IIIB. The data set is classed as functional.
Data set [2] has as its system Human immunodeficiency virus 1. The data set is described as follows: Antiviral activity against wild type HIV-1 IIIB harboring reverse transcriptase […] mutant infected in human MT4 cells assessed as protection against virus-induced cytopathic effect incubated for 5 days by MTT assay. The data set is classed as functional, organism-based. The following applies: Human immunodeficiency virus 1, IIIB, MT4, 120 h.

Data set [3] has as its target Human immunodeficiency virus type 1 reverse transcriptase (Human immunodeficiency virus 1, UniProt Q72547). Briefly: Inhibition of recombinant wild type HIV-1 reverse transcriptase using DNA/RNA as substrate incubated for 40 mins by Pico-green dye based spectrofluorometric analysis.
The nature of data set [4]: Resistant factor, ratio of EC50 for antiviral activity against HIV-1 IIIB harboring reverse transcriptase […] mutant to EC50 for antiviral activity against wild type HIV-1 IIIB. The data set is classed as functional.
The nature of data set [5]: Resistant factor, ratio of EC50 for antiviral activity against HIV-1 IIIB harboring reverse transcriptase Y181C mutant to EC50 for antiviral activity against wild type HIV-1 IIIB. The format is functional.
The nature of data set [6]: Selectivity index, ratio of CC50 for cytotoxicity against human MT4 cells to EC50 for antiviral activity against wild type HIV-1 IIIB infected in human MT4 cells. The format is toxicity, cell-based. The following applies: read-out: Ratio CC50/EC50.
A short description of data set [7]: Cytotoxicity against human MT4 cells assessed as reduction in cell viability incubated for 5 days by MTT assay. The format is toxicity, cell-based. Particulars: time 5 day. Background: Formazan colour is commonly taken as a measure of viable cells.
Data set [8] in a line: Resistant factor, ratio of EC50 for antiviral activity against HIV-1 IIIB harboring reverse transcriptase E138K mutant to EC50 for antiviral activity against wild type HIV-1 IIIB. The format is functional.
Data set [9] deals with Human immunodeficiency virus 1. The data set is described as follows: Antiviral activity against wild type HIV-1 IIIB infected in human MT4 cells assessed as protection against virus-induced cytopathic effect incubated for 5 days by MTT assay. Particulars: Human immunodeficiency virus 1, IIIB, MT4, 120 h. The data set is classed as functional, organism-based. On the technique in general: Damage to the host cells serves as the signal in cytopathic effect assays.

In data set [10] the test system is Human immunodeficiency virus 1. The data set is described as follows: Antiviral activity against wild type HIV-1 IIIB harboring reverse transcriptase E138K mutant infected in human MT4 cells assessed as protection against virus-induced cytopathic effect incubated for 5 days by MTT assay. The format is functional, organism-based. Particulars: Human immunodeficiency virus 1, IIIB, MT4, 120 h.

For data set [11], the system named is Human immunodeficiency virus 1. Briefly: Antiviral activity against wild type HIV-1 IIIB harboring reverse transcriptase K103N mutant infected in human MT4 cells assessed as protection against virus-induced cytopathic effect incubated for 5 days by MTT assay. The data set is classed as functional, organism-based. The following applies: Human immunodeficiency virus 1, IIIB, MT4, 120 h.

Data set [12] concerns Human immunodeficiency virus 1. Briefly: Antiviral activity against wild type HIV-1 IIIB harboring reverse transcriptase Y181C mutant infected in human MT4 cells assessed as protection against virus-induced cytopathic effect incubated for 5 days by MTT assay. The data set is classed as functional, organism-based. The following applies: Human immunodeficiency virus 1, IIIB, MT4, 120 h.

Data set [13] relates to Human immunodeficiency virus 1. The data set is described as follows: Antiviral activity against wild type HIV-1 IIIB harboring reverse transcriptase Y188L mutant infected in human MT4 cells assessed as protection against virus-induced cytopathic effect incubated for 5 days by MTT assay. The data set is classed as functional, organism-based. The following applies: Human immunodeficiency virus 1, IIIB, MT4, 120 h.

Data set [14] is described as follows: Resistant factor, ratio of EC50 for antiviral activity against HIV-1 IIIB harboring reverse transcriptase K103N mutant to EC50 for antiviral activity against wild type HIV-1 IIIB. The data set is classed as functional.
Data set [15] addresses Cytochrome P450 2C19 (Homo sapiens, UniProt P33261). Briefly: Inhibition of CYP2C19 in human liver microsomes using S-mephenytoin as substrate incubated for 15 to 45 mins in presence of NADPH. The format is ADME, Microsome. (In general: Microsomes from liver hold many membrane-bound enzymes, among them those of drug oxidation.)

Cytochrome P450 2C19, sequence (P33261 whole entry): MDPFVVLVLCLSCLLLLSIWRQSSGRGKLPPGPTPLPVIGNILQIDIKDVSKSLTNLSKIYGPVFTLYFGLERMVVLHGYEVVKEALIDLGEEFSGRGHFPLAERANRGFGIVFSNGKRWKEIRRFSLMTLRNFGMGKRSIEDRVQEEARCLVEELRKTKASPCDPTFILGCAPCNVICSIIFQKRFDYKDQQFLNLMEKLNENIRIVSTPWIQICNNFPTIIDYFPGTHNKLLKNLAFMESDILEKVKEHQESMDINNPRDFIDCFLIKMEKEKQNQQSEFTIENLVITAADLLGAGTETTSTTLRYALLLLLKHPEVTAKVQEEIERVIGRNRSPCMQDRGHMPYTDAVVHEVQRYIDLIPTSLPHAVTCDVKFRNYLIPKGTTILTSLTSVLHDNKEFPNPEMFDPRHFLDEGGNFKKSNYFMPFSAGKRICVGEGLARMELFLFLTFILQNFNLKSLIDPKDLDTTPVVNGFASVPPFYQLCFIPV

By EC50 is commonly meant the concentration that produces a half-maximal response. As usually defined, the IC50 is the point on the concentration scale where inhibition reaches its midpoint. Usually CC50 stands for the concentration giving 50% cytotoxicity. Regarding `Cc1cc(-c2ccc(C#N)cc2)cc(C)c1Oc1nc(Nc2ccc(C#N)cc2)ncc1C(=O)NC1CCCC1`, the “Ratio EC50” value was 32 in data set [1]; 12 in [4]; 23 in data set [5]; 4 in data set [8]; 6.6 in data set [14]. The EC50 in data set [2] came out at 1780 nM; in data set [9], 145 nM; in data set [10], 573 nM; in data set [11], 960 nM; in [12], 3350 nM; in [13] it was 4650 nM. Besides, in data set [3], the IC50 was determined as 329 nM. The selectivity ratio in data set [6] was more than 1630. Further, in data set [7], the cytotoxic concentration (CC50) at 120 h is more than 236000 nM.
Turning to `Cc1cc(-c2ccc(C#N)cc2)cc(C)c1Oc1nc(Nc2ccc(C#N)cc2)ncc1C(=O)NCCO`, the “Ratio EC50” value was found to be 13 in [1]; 3.9 in data set [4]; 8.8 in data set [5]; 1.8 in data set [8]; 1.8 in data set [14]. In addition, the concentration for a half-maximal effect (EC50) in data set [2] is 13 nM; in data set [9], 3 nM; in data set [10], 6 nM; in data set [11], 6 nM; in data set [12] it was 29 nM; in data set [13], 44 nM. Besides, the IC50 in data set [3] stood at 55 nM. In addition, the selectivity ratio in [6] is more than 11900. In addition, the CC50 at 120 h in data set [7] was more than 39600 nM.
`CCONC(=O)c1cnc(Nc2ccc(C#N)cc2)nc1Oc1c(C)cc(-c2ccc(C#N)cc2)cc1C`: the “Ratio EC50” value in [1] is listed as 25; in data set [4], 6.1; in data set [5], 8.2; in data set [8], 1.3; in [14] it was 2.1. The EC50 was 34 nM in data set [2]; 5 nM in data set [9]; 7 nM in data set [10]; 12 nM in [11]; 46 nM in data set [12]; 138 nM in [13]. In data set [3], the IC50 is 94 nM. For the same compound, the selectivity ratio in [6] is more than 44200. For the same compound, in data set [7], the CC50 at 120 h is more than 248000 nM.
As for `COCCNC(=O)c1cnc(Nc2ccc(C#N)cc2)nc1Oc1c(C)cc(-c2ccc(C#N)cc2)cc1C`, the “Ratio EC50” value is on record as 33 in data set [1]; 13 in data set [4]; 10 in data set [5]; 3.5 in [8]; 5.8 in [14]. For the same compound, the EC50 was determined as 74 nM in data set [2]; 5 nM in data set [9]; 20 nM in [10]; 33 nM in data set [11]; 58 nM in data set [12]; 190 nM in data set [13]. The IC50 in data set [3] is 128 nM. In data set [6], the selectivity ratio was 28100. Further, the CC50 at 120 h in data set [7] was determined as 161000 nM.
Turning to `C#CCNC(=O)c1cnc(Nc2ccc(C#N)cc2)nc1Oc1c(C)cc(-c2ccc(C#N)cc2)cc1C`, the “Ratio EC50” value in [1] was 11; in data set [4], 2.9; in data set [5], 5.5; in data set [8] it was 2.3; in data set [14], 1.6. Further, the EC50 in data set [2] was 16 nM; in data set [9] it was 5 nM; in data set [10], 13 nM; in [11], 9 nM; in data set [12], 31 nM; in data set [13] it was 59 nM. For the same compound, the IC50 in data set [3] came to 72 nM. Also, the selectivity ratio in [6] was found to be 25700. Also, the CC50 at 120 h in [7] turned out to be 145000 nM.
Consider `Cc1cc(-c2ccc(C#N)cc2)cc(C)c1Oc1nc(Nc2ccc(C#N)cc2)ncc1C(=O)NC1CCCCC1`, for which the “Ratio EC50” value in data set [1] turned out to be 30; in data set [4], 9.7; in [5], 26; in data set [8], 4.7; in data set [14], 7.6. Moreover, the EC50 was determined as 1680 nM in [2]; 174 nM in data set [9]; 817 nM in [10]; 1330 nM in data set [11]; 4460 nM in data set [12]; 5140 nM in data set [13]. The IC50 in [3] was determined as 329 nM. The selectivity ratio in data set [6] is more than 1320. For the same compound, the CC50 at 120 h in data set [7] was more than 230000 nM.
For `C=C(C)[C@@H]1CCC2=CC(=O)C[C@@H](C)[C@]2(C)C1` [NOOTKATONE], in [15], the IC50 was found to be 1570 nM.
